Test results taken from ChEMBL document CHEMBL5724696, “Autophagy assay results for EUbOPEN Chemogenomics Library” (2024).

Key:
Assay type in all cases: functional, Homo sapiens
U2OS [1] = test: (§1) Here: values are normalized to the negative (DMSO; defined as 0% autophagy induction) and positive (250nM Torin1; mTOR inhibitor; defined as maximal inducer of autophagy = 100%) control compounds and represented as % of autophagy induction. […] The impact of autophagy induction on cells is complex and depends on the affected target. As such, the magnitude of a phenotype may not be equally mirrored in the %-value of autophagy induction and vice versa. The dynamics of the induction may indicate the mode of activation: e.g. activation via phosphorylation or a signaling cascade may occur fast, while activation via transcription factors may take considerably longer. […] Of note, treatment concentrations may be sub-optimal for specific compounds, leading to false negative annotations.; settings: Culturing Media DMEM, 1 % Penicillin/Streptomycin, 10% Fetal bovin serum Add-On: No, Screening Media Control DMEM, Screening Media Samples DMEM
TERT-RPE1 = test: as §1; settings: Culturing Media DMEM/F12 (1:1), 1 % Penicillin/Streptomycin, 10% Fetal bovin serum Add-On: No, Screening Media Control DMEM/F12 (1:1), Screening Media Samples DMEM/F12 (1:1)
U2OS [2] = test: as §1; settings: Culturing Media DMEM, 1 % Penicillin/Streptomycin, 10% Fetal bovin serum Add-On: No, Screening Media Control DMEM, Screening Media Samples DMEM; remark: listed apart in the source
[3] = Compound Concentration 0.5 uM, Timepoint 12 hours
[4] = Compound Concentration 0.5 uM, Timepoint 24 hours
[5] = Compound Concentration 0.5 uM, Timepoint 36 hours
[6] = Compound Concentration 0.5 uM, Timepoint 60 hours
[7] = Compound Concentration 2 uM, Timepoint 12 hours
[8] = Compound Concentration 2 uM, Timepoint 24 hours
[9] = Compound Concentration 2 uM, Timepoint 36 hours
[10] = Compound Concentration 2 uM, Timepoint 60 hours
[11] = Compound Concentration 10 uM, Timepoint 12 hours
[12] = Compound Concentration 10 uM, Timepoint 24 hours
[13] = Compound Concentration 10 uM, Timepoint 36 hours
[14] = Compound Concentration 10 uM, Timepoint 60 hours

Row | Compound | autophagy induction (U2OS [1]; [3]) [%] | autophagy induction (U2OS [1]; [4]) [%] | autophagy induction (U2OS [1]; [5]) [%] | autophagy induction (U2OS [1]; [6]) [%] | autophagy induction (U2OS [1]; [7]) [%] | autophagy induction (U2OS [1]; [8]) [%] | autophagy induction (U2OS [1]; [9]) [%] | autophagy induction (U2OS [1]; [10]) [%] | autophagy induction (U2OS [1]; [11]) [%] | autophagy induction (U2OS [1]; [12]) [%] | autophagy induction (U2OS [1]; [13]) [%] | autophagy induction (U2OS [1]; [14]) [%] | autophagy induction (TERT-RPE1; [3]) [%] | autophagy induction (TERT-RPE1; [4]) [%] | autophagy induction (TERT-RPE1; [5]) [%] | autophagy induction (TERT-RPE1; [6]) [%] | autophagy induction (TERT-RPE1; [7]) [%] | autophagy induction (TERT-RPE1; [8]) [%] | autophagy induction (TERT-RPE1; [9]) [%] | autophagy induction (TERT-RPE1; [10]) [%] | other results
1 | CC(C)NCC(O)c1ccc(N)c(C#N)c1 (configuration not stated) [CIMATEROL] | 3.679 | -3.232 | -4.651 | -4.997 | 6.803 | -0.3028 | -4.0163 | -10.3459 | 5.959 | -4.01 | -7.491 | -4.33 | 2.2717 | -0.618 | -7.669 | -22.0747 | 9.171 | 5.1156 | 0.3735 | -11.1579 | autophagy induction (TERT-RPE1; [11]): 13.5821%; autophagy induction (TERT-RPE1; [12]): 11.7661%; autophagy induction (TERT-RPE1; [13]): 4.317%; autophagy induction (TERT-RPE1; [14]): -0.2093%; autophagy induction (U2OS [2]; [3]): -8.937%; autophagy induction (U2OS [2]; [4]): -2.541%; autophagy induction (U2OS [2]; [5]): -0.28%; autophagy induction (U2OS [2]; [6]): 0.09617%; autophagy induction (U2OS [2]; [7]): -0.2215%; autophagy induction (U2OS [2]; [8]): -0.03889%; autophagy induction (U2OS [2]; [9]): 0.3661%; autophagy induction (U2OS [2]; [10]): 0.1358%; autophagy induction (U2OS [2]; [11]): 14.0499%; autophagy induction (U2OS [2]; [12]): 5.045%; autophagy induction (U2OS [2]; [13]): 2.283%; autophagy induction (U2OS [2]; [14]): 0.5754%
2 | COc1ccccc1CN[C@H]1C2CCN(CC2)[C@H]1C(c1ccccc1)c1ccccc1 [CP-96345] | -3.495 | -5.808 | -2.326 | -4.4745 | 5.091 | 1.613 | -0.5186 | 0.7913 | 26.1721 | 19.1804 | 19.6555 | 18.5295 | -7.147 | -11.4989 | -14.454 | -21.453 | -6.616 | -10.9647 | -14.8934 | -18.8514 | autophagy induction (TERT-RPE1; [11]): 2.262%; autophagy induction (TERT-RPE1; [12]): 3.387%; autophagy induction (TERT-RPE1; [13]): 7.76%; autophagy induction (TERT-RPE1; [14]): 2.279%; autophagy induction (U2OS [2]; [3]): 8.36%; autophagy induction (U2OS [2]; [4]): 2.83%; autophagy induction (U2OS [2]; [5]): 0.2431%; autophagy induction (U2OS [2]; [6]): 0.5109%; autophagy induction (U2OS [2]; [7]): -21.7864%; autophagy induction (U2OS [2]; [8]): -9.531%; autophagy induction (U2OS [2]; [9]): -7.223%; autophagy induction (U2OS [2]; [10]): -5.938%; autophagy induction (U2OS [2]; [11]): -2.456%; autophagy induction (U2OS [2]; [12]): -0.4585%; autophagy induction (U2OS [2]; [13]): -0.2201%; autophagy induction (U2OS [2]; [14]): -2.05%
